In publication PMC12657586, “Therapeutic effect of an MRGPRX2/MRGPRB2 antagonist on LL-37-induced rosacea-like inflammation in mice” (Inflammation Research, 2025):

Target: T1, MRGPRX2 (Mas-related G protein-coupled receptor X2) (Homo sapiens, UniProt Q96LB1)
T1 sequence (Q96LB1 1-330): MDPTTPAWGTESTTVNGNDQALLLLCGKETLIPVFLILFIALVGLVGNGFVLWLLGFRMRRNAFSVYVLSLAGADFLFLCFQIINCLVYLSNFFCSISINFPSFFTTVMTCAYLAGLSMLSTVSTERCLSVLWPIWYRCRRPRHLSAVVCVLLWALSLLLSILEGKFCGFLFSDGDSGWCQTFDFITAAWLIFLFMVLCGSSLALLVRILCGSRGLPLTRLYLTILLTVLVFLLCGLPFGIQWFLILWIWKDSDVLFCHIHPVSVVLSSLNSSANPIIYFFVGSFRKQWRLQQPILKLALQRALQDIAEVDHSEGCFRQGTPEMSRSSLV
Assay: Fluo-4 calcium flux assay in MRGPRX2-transfected HEK-293 cells, antagonism of LL-37
Type: cell-based

IC50: 12.3 µM
Structure (SMILES): COC(=O)c1cc2cc(NC(N)=O)ccc2cc1-c1cc2c3c(c(O)ccc3c1)C(C)C(C=O)=C2 (stereo not shown) [GE1111]
